Data published in patent US20220040136A1, “TREATMENT OF VULVOVAGINAL DISORDERS” (University of Rochester, priority 2018, published 2022).

How the values were obtained:
Type in all cases: cell-based
human vulvar fibroblasts [1] = test: In vitro LPV model: SPM pre-treatment of patient vestibular/vulvar fibroblasts before inflammatory stimulation, IL-6 and PGE2 by ELISA/EIA; settings: for effect on proinflammatory mediators linked to pain, initial tests: pre-treatment strategy, human vulvar fibroblasts; for prostaglandin E2 (PGE2) production / interleukin-6 (IL-6) production: pre-treated 10 hours with 5 nM SPM, vestibular and external vulvar fibroblasts; for prostaglandin E2 (PGE2) production: then IL-1β 10 pg/ml 48 hr, FIG. 5A; for interleukin-6 (IL-6) production: then bradykinin 100 nM 48 hr, FIG. 5B; for IL-6 production / PGE2 production: pre-treated 18 h at 5 nM, again 30 min prior to activation, IL-1β 10 pg/ml 48 h, booster at 24 h; for IL-6 production: FIG. 23A; for PGE2 production: FIG. 23B
Procedure: (§1) FIGS. 5A, 5B, 5C, and 5D are a set of diagrams showing that PGE2 and IL-6 production is reduced by SPMs. Patient vestibular or vulvar fibroblasts were pre-treated for 10 hours with Lipoxin A4 (LxA4), Resolvin D2 (RvD2), (7R)-Maresin 1 or epi(7S)-Maresin 1 at a 5 nM concentration, then activated with IL-1β (Panel A; 10 pg/ml) or bradykinin (Panel B; 100 nM) for 48 hr. Culture media were collected and analyzed for PGE2 (Panel A) or IL-6 (Panel B) content. Patient fibroblasts were also activated first with IL-1β for 30 min then treated with 5 nM (7R)-Maresin 1 or LXA4 for 18 hours, followed by a booster dose for 6 hr. Culture media were collected and analyzed for PGE2 (Panel C) or IL-6 (Panel D) content. Mean+/−SEM of n=3, ANOVA *p<0.05 vs. activation only (no SPM).
FIGS. 23A and 23B are diagrams showing six SPMs are effective in reducing IL-6 and PGE2 production from fibroblasts when used as a pre-treatment and post-treatment. Patient vestibular or vulvar fibroblasts were pre-treated for 18 h with Resolvin D3 (RvD3), Resolvin D4 (RvD4), Resolvin D5 (RvD5), Resolvin E1 (RvE1), Protectin D1 or Protectin DX at a 5 nM concentration, pre-treated again for 30 min prior to activation, then activated with 10 pg/ml IL-1β for 48 h with a booster SPM dose at 24 h. Culture media were collected and analyzed for IL-6 (Panel A) and PGE2 (Panel B). Mean+/−SEM of n=6 (two cases run in triplicate), ANOVA *p<0.05 vs. activation only (IL-1b).
(§2) In this example, a fibroblast-based in vitro LPV model was established. Briefly, fibroblast strains were obtained from two regions (FIG. 1) of the lower genital tract of localized provoked vulvodynia (LPV) cases and pain-free controls in the manner described in Falsetta et al. Am J Obstet Gynecol 2015, vol. 213, pp. 38 e1-12 and Foster et al., Pain 2015, vol. 156, pp. 386-96.
(§3) Over 30 paired fibroblast strains obtained from LPV-afflicted cases (fulfilling Friedrich's Criteria)^25 and age/race-matched (critical variables influencing LPV),^26, 27 pain-free controls were obtained. All subjects who contributed to the library were premenopausal, denied oral corticosteroids, non-steroidal, immunomodulatory, or anti-inflammatory medication use, and reported an absence of systemic/cutaneous inflammatory conditions at the time of sample collection. Mechanical pain thresholds were determined (via a method of limits) (0.5-5 N) using a Wagner algometer. Fibroblast identity was confirmed by microscopy and fibroblast markers (vimentin, collagen); only low passage (˜4) cells are used.
(§4) Synthesized, purified and commercially available SPMs from each known SPM class (E-series Resolvins, D-series Resolvins, Maresins, Protectins and Lipoxins) at low/nanomolar concentrations (1-100 nM) were tested. […] The inventors used one of two treatment regimens proven effective in vulvar fibroblasts and other cells: 1) overnight pre-treatment, followed by another treatment 30 min prior to stimulation with proinflammatory stimuli for 48 hr with a third dose of SPMs at 24 hr post-challenge, or 2) post-treatment with SPMs after a 30 min pre-treatment with inflammatory stimuli, followed by a booster dose 18 hr later. Both treatment regimens are of interest, as SPMs are active throughout the inflammatory process.^5-7 Even SPMs administered after LPV onset are likely to prevent the worsening or spread of LPV pain.
Next, SPMs from other classes (E series Resolvins and Protectins), as well as additional SPMs from classes containing members that are effective in reducing IL-6 and PGE2 production (e.g., Maresins) were investigated in similar screen. […] SPMs that were effective in reducing more than one proinflammatory mediator in at least 2 tests can be examined for further testing using a preclinical mouse model. […] These additional effective SPMs include Resolvin D3, Resolvin D4, Resolvin D5, Resolvin E1, Protectin D1, and Protectin DX. […]

Mouse vulvar tissue = test: Mouse vulvar explants (4 mm punch biopsy), IL-1β-stimulated PGE2 production; settings: pre-treatment 18 hours, then IL-1β 10 pg/ml 18 hours; range of doses, as low as 1 nM; FIG. 6
Procedure: FIG. 6 is a diagram showing that SPMs inhibit PGE2 production from mouse vulvar tissue. Mouse vulvar tissue (4 mm punch biopsies) was collected and bisected then pre-treated in culture medium with either Maresin 1 or RvD2 at indicated concentrations for 18 hours, followed by an additional 18 hours stimulation with IL-1β (10 pg/ml). Culture medium was collected and analyzed for PGE2 content. Mean+/−SEM; n=3 replicate cultures. ANOVA * p<0.05 vs. vehicle.
Although SPM structure and therapeutic efficacy is conserved across species,^5-7 inventors first confirmed that mouse vulvar tissues responded to SPM treatment in vitro by culturing mouse vulvar explants (4 mm punch biopsy). The explants were stimulated with IL-1, and then assays were carried to assess the ability of Maresin 1 or RvD2 to reduce PGE2 production under the established pre-treatment regimen.

human vulvar fibroblasts [2] = test: In vitro LPV model: SPM post-treatment of already activated patient fibroblasts, IL-6 and PGE2; settings: post-treatment: IL-1β 30 min; for IL-6 production / PGE2 production: then 5 nM 18 hours, booster dose 24 hr; for IL-6 production: FIG. 24A; for PGE2 production: FIG. 24B
Procedure: as §1
FIGS. 24A and 24B are diagrams showing that six SPMs are effective in reducing IL-6 and PGE2 production from fibroblasts when used as a post-treatment. Patient vestibular or vulvar fibroblasts were activated first with IL-1β for 30 min then treated with RvD3, RvD4, RvD5, RvE1, Protectin D1 or Protectin DX at a 5 nM concentration for 18 hours, followed by a booster SPM dose for 24 hr. Culture media were collected and analyzed for IL-6 (Panel A) and PGE2 (Panel B) content. Mean+/−SEM of n=6 (two cases run in triplicate), ANOVA *p<0.05 vs. activation only (IL-1b). […] The magnitude of reduction was not as great as pre-treatment, but equally significant as the reduction from pre-treatment regimens.
as §2, §3, §4

Compound | effect on proinflammatory mediators linked to pain, initial tests (human vulvar fibroblasts [1]) | IL-6 production (human vulvar fibroblasts [1]) | PGE2 production (human vulvar fibroblasts [1]) | IL-6 production (human vulvar fibroblasts [2]) | PGE2 production (human vulvar fibroblasts [2]) | also measured
CCCCC[C@H](O)[C@H](O)/C=C/C=C/C=C\C=C\[C@@H](O)CCCC(=O)O [Lipoxin B4] | no striking effects |  |  |  |  | 
CC/C=C\C[C@H](O)[C@H](O)/C=C/C=C/C=C\C=C\[C@@H](O)C/C=C\CCC(=O)O [Resolvin D2, 7S,16R,17S-trihydroxy-docosa-4Z,8E,10Z,12E,14E,19Z-hexaenoic acid] |  |  |  |  |  | prostaglandin E2 (PGE2) production (human vulvar fibroblasts [1]): significantly reduced; interleukin-6 (IL-6) production (human vulvar fibroblasts [1]): significantly reduced; PGE2 responses following IL-1β treatment (Mouse vulvar tissue): significantly suppressed
CC/C=C\C/C=C\C[C@H](O)\C=C/C=C/C=C/[C@@H](O)C/C=C\CCC(=O)O [epi-Maresin 1, 7S,14S-docosa-4Z,8E,10E,12Z,16Z,19Z-hexaenoic acid] |  |  |  |  |  | prostaglandin E2 (PGE2) production (human vulvar fibroblasts [1]): significantly reduced; interleukin-6 (IL-6) production (human vulvar fibroblasts [1]): significantly reduced
CC/C=C\C[C@H](O)/C=C/C=C\C/C=C\C=C\[C@@H](O)C/C=C\CCC(=O)O [Resolvin D5] |  | showed efficacy | showed efficacy | showed efficacy | showed efficacy | 
CC/C=C\C[C@H](O)\C=C/C=C/C=C/[C@H](O)C/C=C\C/C=C\CCC(=O)O [Protectin D1, 10R,17S-dihydroxy-docosa-4Z,7Z,11E,13E,15Z,19Z-hexaenoic acid] |  | showed efficacy | showed efficacy | showed efficacy | showed efficacy | 
CC/C=C\C[C@H](O)/C=C/C=C\C[C@@H](O)/C=C/C=C/C=C\[C@@H](O)CCC(=O)O [Resolvin D3, 4S,11R,17S-trihydroxy-docosa-5Z,7E,9E,13Z,15E,19Z-hexaenoic acid] |  | showed efficacy | showed efficacy | showed efficacy | showed efficacy | 
CC/C=C\C[C@H](O)/C=C/C=C\C=C\[C@@H](O)C/C=C\C/C=C\CCC(=O)O [Protectin DX] |  | showed efficacy | showed efficacy | showed efficacy | showed efficacy | 
CC/C=C\C[C@H](O)/C=C/C=C\C=C\C=C\[C@@H](O)[C@@H](O)C/C=C\CCC(=O)O [Resolvin D1, 7S,8R,17S-trihydroxy-docosa-4Z,9E,11E,13Z,15E,19Z-hexaenoic acid] | no striking effects |  |  |  |  | 
CC/C=C\C[C@H](O)/C=C/C=C\C/C=C\C/C=C\C/C=C\CCC(=O)O [17(S)-HDHA, 17(S)-hydroxy docosahexaenoic acid] | no striking effects |  |  |  |  | 
CC/C=C\C[C@H](O)/C=C/C=C\C\C=C/C=C/C=C/[C@@H](O)[C@@H](O)CCC(=O)O [Resolvin D4, 4S,5,17S-trihydroxy-docosa-6E,8E,10Z,13Z,15E,19Z-hexaenoic acid] |  | showed efficacy | showed efficacy | showed efficacy | showed efficacy | 
CC/C=C\C[C@@H](O)/C=C/C=C\C=C\C=C\[C@@H](O)[C@@H](O)C/C=C\CCC(=O)O [AT-Resolvin D1, 7S,8R,17R-trihydroxy-docosa-4Z,9E,11E,13Z,15E,19Z-hexaenoic acid] | no striking effects |  |  |  |  | 
CC[C@@H](O)/C=C/C=C\C[C@@H](O)/C=C/C=C/C=C\[C@@H](O)CCCC(=O)O [Resolvin E1, 5S,12,18-trihydroxy-eicosa-6Z,8E,10E,14Z,16E-pentaenoic acid] |  | showed efficacy | showed efficacy | showed efficacy | showed efficacy | 
CCCCC[C@H](O)/C=C/C=C\C=C\C=C\[C@@H](O)[C@@H](O)CCCC(=O)O [Lipoxin A4, 5S,6R,15S-trihydroxy-eicosa-7E,9E,11Z,13E-tetraenoic acid] |  |  |  |  |  | prostaglandin E2 (PGE2) production (human vulvar fibroblasts [1]): significantly reduced; interleukin-6 (IL-6) production (human vulvar fibroblasts [1]): significantly reduced; PGE2 levels (human vulvar fibroblasts [2]; then 5 nM SPM 18 hours, booster dose 6 hr, FIG. 5C): significantly reduced; IL-6 levels (human vulvar fibroblasts [2]; then 5 nM SPM 18 hours, booster dose 6 hr, FIG. 5D): significantly reduced
